This experiment addresses human NAMPT enzyme (His-hNAMPT) (Homo sapiens (Human), UniProt P43490). The experiment in a line: NAMPT enzymatic inhibition assay (fluorescence, NADH product). To be noted: [HDB]; read-out: NAMPT IC50 (μM) [HDB]. The format is biochemical.
Sequence of human NAMPT enzyme (His-hNAMPT) (P43490 whole entry): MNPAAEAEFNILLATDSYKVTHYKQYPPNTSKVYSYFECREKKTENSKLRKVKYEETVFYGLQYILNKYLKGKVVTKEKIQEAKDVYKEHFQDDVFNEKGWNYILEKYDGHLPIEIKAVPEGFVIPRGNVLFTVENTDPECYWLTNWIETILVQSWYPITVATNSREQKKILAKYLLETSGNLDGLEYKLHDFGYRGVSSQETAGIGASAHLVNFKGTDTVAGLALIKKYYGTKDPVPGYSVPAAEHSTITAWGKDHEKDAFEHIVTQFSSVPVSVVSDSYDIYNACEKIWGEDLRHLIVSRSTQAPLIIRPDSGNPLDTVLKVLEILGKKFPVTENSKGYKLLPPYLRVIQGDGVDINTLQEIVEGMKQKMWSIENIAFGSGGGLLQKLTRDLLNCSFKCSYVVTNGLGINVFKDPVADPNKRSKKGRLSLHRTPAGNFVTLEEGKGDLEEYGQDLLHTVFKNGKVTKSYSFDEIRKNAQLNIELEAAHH
As usually defined, the IC50 is the concentration that gives 50% inhibition. For `CC(c1ncccn1)N1C[C@@H]2[C@@H](CCNC(=O)/C=C/c3cccnc3)[C@@H]2C1` (stereo partly drawn) [Example 315, (E)-3-(pyridin-3-yl)-N-(2-((1R,5S,6s)-3-(1-(pyrimidin-2-yl)ethyl)-3-azabicyclo[3.1.0]hexan-6-yl)ethyl)acrylamide], the IC50 lay in the range of 0.01 to 0.49 µM.

As to `O=C(/C=C/c1cccnc1)NCC[C@@H]1[C@H]2CN(Cc3cnc(Cl)nc3)C[C@@H]12` [Example 316], the IC50 was 0.01 to 0.49 µM.

As to `CNC(=O)C(c1ccccc1)N1C[C@@H]2[C@@H](CCNC(=O)/C=C/c3cccnc3)[C@@H]2C1` (stereo partly drawn) [Example 317, (E)-N-(2-((1R,5S,6s)-3-(2-(methylamino)-2-oxo-1-phenylethyl)-3-azabicyclo[3.1.0]hexan-6-yl)ethyl)-3-(pyridin-3-yl)acrylamide], the IC50 is less than 0.01 µM.

Turning to `CCN(CC)C(=O)C(c1ccccc1)N1C[C@@H]2[C@@H](CCNC(=O)/C=C/c3cccnc3)[C@@H]2C1` (stereo partly drawn) [Example 318, (E)-N-(2-((1R,5S,6s)-3-(2-(diethylamino)-2-oxo-1-phenylethyl)-3-azabicyclo[3.1.0]hexan-6-yl)ethyl)-3-(pyridin-3-yl)acrylamide], the IC50 is less than 0.01 µM.

For the molecule `CC(c1ccncc1)N1C[C@@H]2[C@@H](CCNC(=O)/C=C/c3cccnc3)[C@@H]2C1` (stereo partly drawn) [Example 319, (E)-3-(pyridin-3-yl)-N-(2-((1R,5S,6s)-3-(1-(pyridin-4-yl)ethyl)-3-azabicyclo[3.1.0]hexan-6-yl)ethyl)acrylamide], the half-maximal inhibitory concentration (IC50) was less than 0.01 µM.

On to `CC(c1cccnc1)N1C[C@@H]2[C@@H](CCNC(=O)/C=C/c3cccnc3)[C@@H]2C1` (stereo partly drawn) [Example 320, (E)-3-(pyridin-3-yl)-N-(2-((1R,5S,6s)-3-(1-(pyridin-3-yl)ethyl)-3-azabicyclo[3.1.0]hexan-6-yl)ethyl)acrylamide], for which the IC50 was less than 0.01 µM.

Take `CC(c1ccccn1)N1C[C@@H]2[C@@H](CCNC(=O)/C=C/c3cccnc3)[C@@H]2C1` (stereo partly drawn) [Example 321, (E)-N-(2-((1R,5S,6s)-3-(1-(pyridin-2-yl)ethyl)-3-azabicyclo[3.1.0]hexan-6-yl)ethyl)-3-(pyridin-3-yl)acrylamide]: the IC50 lay within 0.01 to 0.49 µM.

Consider `CC(c1ccc(F)cc1)N1C[C@@H]2[C@@H](CCNC(=O)/C=C/c3cccnc3)[C@@H]2C1` (stereo partly drawn) [Example 322, (E)-N-(2-((1R,5S,6s)-3-(1-(4-fluorophenyl)ethyl)-3-azabicyclo[3.1.0]hexan-6-yl)ethyl)-3-(pyridin-3-yl)acrylamide], for which the half-maximal inhibitory concentration (IC50) lay in the range of 0.01 to 0.49 µM.

As to `CC(c1cccc(F)c1)N1C[C@@H]2[C@@H](CCNC(=O)/C=C/c3cccnc3)[C@@H]2C1` (stereo partly drawn) [Example 323, (E)-N-(2-((1R,5S,6s)-3-(1-(3-fluorophenyl)ethyl)-3-azabicyclo[3.1.0]hexan-6-yl)ethyl)-3-(pyridin-3-yl)acrylamide], the IC50 was less than 0.01 µM.

`O=C(/C=C/c1cccnc1)NCC[C@@H]1[C@H]2CN(c3nc(N4CCNCC4)ncc3F)C[C@@H]12` [Example 324, (E)-N-(2-((1R,5S,6s)-3-(5-fluoro-2-(piperazin-1-yl)pyrimidin-4-yl)-3-azabicyclo[3.1.0]hexan-6-yl)ethyl)-3-(pyridin-3-yl)acrylamide]: the half-maximal inhibitory concentration (IC50) lay within 0.01 to 0.49 µM.

As to `CN1CCN(c2ncc(F)c(N3C[C@@H]4[C@@H](CCNC(=O)/C=C/c5cccnc5)[C@@H]4C3)n2)CC1` [Example 325, (E)-N-(2-((1R,5S,6s)-3-(5-fluoro-2-(4-methylpiperazin-1-yl)pyrimidin-4-yl)-3-azabicyclo[3.1.0]hexan-6-yl)ethyl)-3-(pyridin-3-yl)acrylamide], the half-inhibitory concentration (IC50) is less than 0.01 µM.

With `O=C(/C=C/c1cccnc1)NCC[C@@H]1[C@H]2CN(c3nc(N4CCC(O)C4)ncc3F)C[C@@H]12` (stereo partly drawn) [Example 326, (E)-N-(2-((1R,5S,6s)-3-(5-fluoro-2-(3-hydroxypyrrolidin-1-yl)pyrimidin-4-yl)-3-azabicyclo[3.1.0]hexan-6-yl)ethyl)-3-(pyridin-3-yl)acrylamide], the IC50 is less than 0.01 µM.

On to `CNc1ncc(F)c(N2C[C@@H]3[C@@H](CCNC(=O)/C=C/c4cccnc4)[C@@H]3C2)n1` [Example 327, (E)-N-(2-((1R,5S,6s)-3-(5-fluoro-2-(methylamino)pyrimidin-4-yl)-3-azabicyclo[3.1.0]hexan-6-yl)ethyl)-3-(pyridin-3-yl)acrylamide], for which the IC50 is less than 0.01 µM.

As for `CNC(=O)COc1ncc(F)c(N2C[C@@H]3[C@@H](CCNC(=O)/C=C/c4cccnc4)[C@@H]3C2)n1` [Example 328, (E)-N-(2-((1R,5S,6s)-3-(5-fluoro-2-(2-(methylamino)-2-oxoethoxy)pyrimidin-4-yl)-3-azabicyclo[3.1.0]hexan-6-yl)ethyl)-3-(pyridin-3-yl)acrylamide], the IC50 lay in the range of 0.01 to 0.49 µM.

Turning to `CCN(CC)C(=O)COc1ncc(F)c(N2C[C@@H]3[C@@H](CCNC(=O)/C=C/c4cccnc4)[C@@H]3C2)n1` [Example 329, (E)-N-(2-((1R,5S,6s)-3-(2-(2-(diethylamino)-2-oxoethoxy)-5-fluoropyrimidin-4-yl)-3-azabicyclo[3.1.0]hexan-6-yl)ethyl)-3-(pyridin-3-yl)acrylamide], the IC50 is 0.01 to 0.49 µM.

For the molecule `COc1ncc(F)c(N2C[C@@H]3[C@@H](CCNC(=O)/C=C/c4cncc(F)c4)[C@@H]3C2)n1` [Example 330, (E)-N-(2-((1R,5S,6s)-3-(5-fluoro-2-methoxypyrimidin-4-yl)-3-azabicyclo[3.1.0]hexan-6-yl)ethyl)-3-(5-fluoropyridin-3-yl)acrylamide], the half-maximal inhibitory concentration (IC50) was in the range of 0.01 to 0.49 µM.

As to `O=C(/C=C/c1cccnc1)NCC[C@@H]1[C@H]2CN(c3nc(OCCN4CCOCC4)ncc3F)C[C@@H]12` [Example 331, (E)-N-(2-((1R,5S,6s)-3-(5-fluoro-2-(2-morpholinoethoxy)pyrimidin-4-yl)-3-azabicyclo[3.1.0]hexan-6-yl)ethyl)-3-(pyridin-3-yl)acrylamide], the IC50 is less than 0.01 µM.

`COc1ncc(F)c(N2C[C@@H]3[C@@H](CCNC(=O)/C=C/c4cnccc4F)[C@@H]3C2)n1` [Example 332, (E)-N-(2-((1R,5S,6s)-3-(5-fluoro-2-methoxypyrimidin-4-yl)-3-azabicyclo[3.1.0]hexan-6-yl)ethyl)-3-(4-fluoropyridin-3-yl)acrylamide]: the IC50 is less than 0.01 µM.

In the case of `O=C(/C=C/c1cccnc1)NCC[C@@H]1[C@H]2CN(c3nc(N4CCNC(=O)C4)ncc3F)C[C@@H]12` [Example 333, (E)-N-(2-((1R,5S,6s)-3-(5-fluoro-2-(3-oxopiperazin-1-yl)pyrimidin-4-yl)-3-azabicyclo[3.1.0]hexan-6-yl)ethyl)-3-(pyridin-3-yl)acrylamide], the IC50 is less than 0.01 µM.

Consider `Cc1nc2cccc(N3C[C@@H]4[C@@H](CCNC(=O)/C=C/c5cccnc5)[C@@H]4C3)c2o1` [Example 334, (E)-N-(2-((1R,5S,6s)-3-(2-methylbenzo[d]oxazol-7-yl)-3-azabicyclo[3.1.0]hexan-6-yl)ethyl)-3-(pyridin-3-yl)acrylamide], for which the IC50 was less than 0.01 µM.

For `O=C(/C=C/c1cccnc1)NCC[C@@H]1[C@H]2CN(C(c3ccccc3)C3CCOCC3)C[C@@H]12` (stereo partly drawn) [Example 335, (E)-N-(2-((1R,5S,6s)-3-(phenyl(tetrahydro-2H-pyran-4-yl)methyl)-3-azabicyclo[3.1.0]hexan-6-yl)ethyl)-3-(pyridin-3-yl)acrylamide], the IC50 is 0.01 to 0.49 µM.

(Values after patent US12421210B2, “Fused bicyclic heterocycles as therapeutic agents” (NEW YORK UNIVERSITY, priority 2018, dated 2025).)
